{
  "source": "patent US6326386A",
  "about": "“Benzamide derivatives as thrombin inhibitors” (Glaxo Group Limited, priority 1995, dated 2001)",
  "data": [
    {"target": "T1, human α-thrombin (Homo sapiens, UniProt P00734)", "T1 construct": "human α-thrombin", "assay": "Inhibition of human α-thrombin in a chromogenic assay (N-p-tosyl-gly-pro-lys p-nitroanilide substrate)", "format": "biochemical", "details": "human α-thrombin 1 nM, substrate 100 μM, pH 7.4, room temperature, 405 nm; preincubation (zero or 15 mins) not given", "protocol": "All dilutions were made in a buffer consisting of: 50 mM HEPES, 150 mM NaCl, 5 mM CaCl2, 0.1% PEG and at pH 7.4. Briefly, the substrate (final conc. of 100 μM) was added to thrombin (final conc. of 1 nM) and the reaction monitored for 10 mins at 405 nm using a Biotek EL340 plate reader; the assay was performed at room temperature. To obtain IC50 s the data were analyzed using Kineticalc® with a 4-parameter curve fitting procedure to obtain the IC50 value.\nThe compounds of the present invention are thrombin inhibitors. The results below illustrate the thrombin activity of a range of compounds of formula (I) using the previously described biological method: […]", "units": {"IC50": "nM"}, "values": [
      {"compound": "CC(C)N(CCc1noc(O)n1)C(=O)c1cc(Cl)cc(OCCNc2ccncc2)c1", "note": "[Example 109]", "IC50": 140},
      {"compound": "O=C(O)CCCCCN(CC1CCCCC1)C(=O)c1cc(Cl)cc(OCCNc2ccncc2)c1", "note": "[Example 124, 6-({3-Chloro-5-[2-(pyridin-4-ylamino)-ethoxy]-benzoyl}-cyclohexylmethyl-amino)-hexanoic acid]", "IC50": 28},
      {"compound": "O=C(CCCN(C(=O)c1cc(Cl)cc(OCCNc2ccncc2)c1)c1ccccc1F)N1CCCC1", "note": "[Example 37, 3-Chloro-N-(2-fluoro-phenyl)-N-(4-oxo-4-pyrrolidin-1-yl-butyl)-5-[2-(pyridin-4-ylamino)-ethoxy]-benzamide]", "IC50": 17},
      {"compound": "CCCN(C(=O)c1cc(Cl)cc(OCCNc2ccncc2)c1)c1cc(F)cc(F)c1", "note": "[Example 29, 3-Chloro-N-(3,5-difluoro-phenyl)-N-propyl-5-[2-(pyridin-4-ylamino)-ethoxy]-benzamide]", "IC50": 62},
      {"compound": "O=C(c1cc(Cl)cc(OCCNc2ccncc2)c1)N(CCOCC(O)CO)c1ccccc1", "note": "(stereo not drawn) [Example 41, 3-Chloro-N-[2-(2,3-dihydroxy-propoxy)-ethyl]-N-phenyl-5-[2-(pyridin-4-ylamino)-ethoxy]-benzamide]", "IC50": 28},
      {"compound": "CC(C)(C)NC(=O)CCN(C(=O)c1cc(Cl)cc(OCCNc2ccncc2)c1)c1ccccc1", "note": "[Example 47, N-(2-tert-Butylcarbamoyl-ethyl)-3-chloro-N-phenyl-5-[2-(pyridin-4-ylamino)ethoxy]-benzamide]", "IC50": 61},
      {"compound": "O=C(c1cc(Cl)cc(OCCNc2ccncc2)c1)N(CCCO)C1CCCC1", "note": "[Example 9, 3-Chloro-N-cyclopentyl-N-(3-hydroxy-propyl)-5-[2-(pyridin-4-ylamino)-ethoxy]-benzamide]", "IC50": 7},
      {"compound": "O=C(c1cc(Cl)cc(OCCNc2ccncc2)c1)N(CCCn1cncn1)c1ccc(F)cc1", "note": "[Example 90, 3-Chloro-N-(4-fluoro-phenyl)-5-[2-(pyridin-4-ylamino)-ethoxy]-N-(3-[1,2,4]triazol-1-yl-propyl)-benzamide]", "IC50": 22},
      {"compound": "CC(C)N(CCCNS(C)(=O)=O)C(=O)c1cc(Cl)cc(OCCNc2ccncc2)c1", "note": "[Example 72, 3-Chloro-N-isopropyl-N-(3-methanesulfonylamino-propyl)-5-[2-(pyridin-4-ylamino)-ethoxy]-benzamide]", "IC50": 63},
      {"compound": "COCCN(C(=O)c1cc(Cl)cc(OCCNc2ccncc2)c1)C(C)C", "note": "[Example 99, 3-Chloro-N-isopropyl-N-(2-methoxy-ethyl)-5-[2-(pyridin-4-ylamino)-ethoxy]-benzamide]", "IC50": 40},
      {"compound": "CC(C)CN(Cc1ccc(C(=O)O)cc1)C(=O)c1cc(Cl)cc(OCCNc2ccncc2)c1", "note": "[Example 118, 4-[({3-Chloro-5-[2-(pyridin-4-ylamino)-ethoxy]-benzoyl}-isobutyl-amino)-methyl]-benzoic acid]", "IC50": 10},
      {"compound": "NC(=O)CCCCCN(Cc1ccco1)C(=O)c1cc(Cl)cc(OCCNc2ccncc2)c1", "note": "[Example 138, N-(5-Carbamoyl-pentyl)-3-chloro-N-furan-2-ylmethyl-5-[2-(pyridin-4-ylamino)-ethoxy]-benzamide]", "IC50": 91},
      {"compound": "O=C(O)CCCN(C(=O)c1cc(Cl)cc(OCCNc2ccncc2)c1)C1CCC1", "note": "[Example 128, 4-({3-Chloro-5-[2-(pyridin-4-ylamino)-ethoxy]-benzol}-cyclobutyl-amino)-butyric acid]", "IC50": 41},
      {"compound": "O=C(c1cc(Cl)cc(OCCNc2ccncc2)c1)N(CCCc1nnn[nH]1)c1ccccc1F", "note": "[Example 40, 3-Chloro-N-(2-fluoro-phenyl)-5-[2-(pyridin-4-ylamino)-ethoxy]-N-[3-(1H-tetrazol-5-yl)-propyl]-benzamide]", "IC50": 9},
      {"compound": "O=C(CCCN(C(=O)c1cc(Cl)cc(OCCNc2ccncc2)c1)C1CCCC1)N1CCCC1", "note": "[Example 20, 3-Chloro-N-cyclopentyl-N-(4-oxo-4-pyrrolidin-1-yl-butyl)-5-[2-(pyridin-4-ylamino)-ethoxy]-benzamide]", "IC50": 9},
      {"compound": "Cc1cc(OCCNc2ccncc2)cc(C(=O)N(C)C2CCCCC2)c1", "note": "[Example 1, N-Cyclohexyl-3, N-dimethyl-5-[2-(pyridin-4-ylamino)-ethoxy]-benzamide]", "IC50": 8},
      {"compound": "O=C(c1cc(Cl)cc(OCCNc2ccncc2)c1)N(CCCCn1cncn1)C1CCCC1", "note": "[Example 92, 3-Chloro-N-cyclopentyl-5-[2-(pyridin-4-ylamino)-ethoxy]-N-(4-[1,2,4]triazol-1-yl-butyl)-benzamide]", "IC50": 15},
      {"compound": "C=CCN(C(=O)c1cc(Cl)cc(OCCNc2ccncc2)c1)C1CCCC1", "note": "[Example 6, N-Allyl-3-chloro-N-cyclopentyl-5-[2-(pyridin-4-ylamino)-ethoxy]-benzamide]", "IC50": 5},
      {"compound": "O=C(c1cc(Cl)cc(OCCNc2ccncc2)c1)N(CCn1cncn1)C1CCCC1", "note": "[Example 91, 3-Chloro-N-cyclopentyl-5-[2-(pyridin-4-ylamino)-ethoxy]-N-(2-[1,2,4]triazol-1-yl-ethyl)-benzamide]", "IC50": 34},
      {"compound": "NC(=O)CCN(CC1CC1)C(=O)c1cc(Cl)cc(OCCNc2ccncc2)c1", "note": "[Example 55, N-(2-Carbamoyl-ethyl)-3-chloro-N-cyclopropylmethyl-5-[2-(pyridin-4-ylamino)-ethoxy]-benzamide]", "IC50": 50},
      {"compound": "CCOC(=O)CCCN(C(=O)c1cc(Cl)cc(OCCNc2ccncc2)c1)C1CCCC1", "note": "[Example 17, 4-({3-Chloro-5-[2-(pyridin-4-ylamino)-ethoxy]-benzoyl}-cyclopentyl-amino)-butyric acid ethyl ester]", "IC50": 14},
      {"compound": "O=C(c1cc(Cl)cc(OCCNc2ccncc2)c1)N(CCCN1CCOCC1)C1CCCC1", "note": "[Example 13, 3-Chloro-N-cyclopentyl-N-(3-morpholin-4-yl-propyl)-5-[2-(pyridin-4-ylamino)-ethoxy]-benzamide]", "IC50": 15},
      {"compound": "O=C(CCN(C(=O)c1cc(Cl)cc(OCCNc2ccncc2)c1)c1ccccc1)N1CCSCC1", "note": "[Example 49, 3-Chloro-N-(3-oxo-3-thiomorpholin-4-yl-propyl)-N-phenyl-5-[2-(pyridin-4-ylamino)-ethoxy]-benzamide]", "IC50": 38},
      {"compound": "CC(C)N(CCC(N)=O)C(=O)c1cc(Cl)cc(OCCNc2ccncc2)c1", "note": "[Example 58, N-(2-Carbamoyl-ethyl)-3-chloro-N-isopropyl-5-[2-(pyridin-4-ylamino)-ethoxy]-benzamide]", "IC50": 107}
    ]}
  ]
}
